The test deals with T1, Nav1.7 (or SCN9A) channel; HEK cells stably transfected with hSCN9A (Homo sapiens, UniProt Q15858).
T1 construct: expressed in transfected cells
As to the kind of experiment: Nav1.7 block, PatchXpress 7000 automated whole-cell voltage clamp, estimated IC50 (EIC50). It counts as cell-based. The conditions noted are these: estimated IC50; hSCN9A HEK cells, PatchXpress platform; Examples 283-814.

T1 sequence (Q15858 whole entry): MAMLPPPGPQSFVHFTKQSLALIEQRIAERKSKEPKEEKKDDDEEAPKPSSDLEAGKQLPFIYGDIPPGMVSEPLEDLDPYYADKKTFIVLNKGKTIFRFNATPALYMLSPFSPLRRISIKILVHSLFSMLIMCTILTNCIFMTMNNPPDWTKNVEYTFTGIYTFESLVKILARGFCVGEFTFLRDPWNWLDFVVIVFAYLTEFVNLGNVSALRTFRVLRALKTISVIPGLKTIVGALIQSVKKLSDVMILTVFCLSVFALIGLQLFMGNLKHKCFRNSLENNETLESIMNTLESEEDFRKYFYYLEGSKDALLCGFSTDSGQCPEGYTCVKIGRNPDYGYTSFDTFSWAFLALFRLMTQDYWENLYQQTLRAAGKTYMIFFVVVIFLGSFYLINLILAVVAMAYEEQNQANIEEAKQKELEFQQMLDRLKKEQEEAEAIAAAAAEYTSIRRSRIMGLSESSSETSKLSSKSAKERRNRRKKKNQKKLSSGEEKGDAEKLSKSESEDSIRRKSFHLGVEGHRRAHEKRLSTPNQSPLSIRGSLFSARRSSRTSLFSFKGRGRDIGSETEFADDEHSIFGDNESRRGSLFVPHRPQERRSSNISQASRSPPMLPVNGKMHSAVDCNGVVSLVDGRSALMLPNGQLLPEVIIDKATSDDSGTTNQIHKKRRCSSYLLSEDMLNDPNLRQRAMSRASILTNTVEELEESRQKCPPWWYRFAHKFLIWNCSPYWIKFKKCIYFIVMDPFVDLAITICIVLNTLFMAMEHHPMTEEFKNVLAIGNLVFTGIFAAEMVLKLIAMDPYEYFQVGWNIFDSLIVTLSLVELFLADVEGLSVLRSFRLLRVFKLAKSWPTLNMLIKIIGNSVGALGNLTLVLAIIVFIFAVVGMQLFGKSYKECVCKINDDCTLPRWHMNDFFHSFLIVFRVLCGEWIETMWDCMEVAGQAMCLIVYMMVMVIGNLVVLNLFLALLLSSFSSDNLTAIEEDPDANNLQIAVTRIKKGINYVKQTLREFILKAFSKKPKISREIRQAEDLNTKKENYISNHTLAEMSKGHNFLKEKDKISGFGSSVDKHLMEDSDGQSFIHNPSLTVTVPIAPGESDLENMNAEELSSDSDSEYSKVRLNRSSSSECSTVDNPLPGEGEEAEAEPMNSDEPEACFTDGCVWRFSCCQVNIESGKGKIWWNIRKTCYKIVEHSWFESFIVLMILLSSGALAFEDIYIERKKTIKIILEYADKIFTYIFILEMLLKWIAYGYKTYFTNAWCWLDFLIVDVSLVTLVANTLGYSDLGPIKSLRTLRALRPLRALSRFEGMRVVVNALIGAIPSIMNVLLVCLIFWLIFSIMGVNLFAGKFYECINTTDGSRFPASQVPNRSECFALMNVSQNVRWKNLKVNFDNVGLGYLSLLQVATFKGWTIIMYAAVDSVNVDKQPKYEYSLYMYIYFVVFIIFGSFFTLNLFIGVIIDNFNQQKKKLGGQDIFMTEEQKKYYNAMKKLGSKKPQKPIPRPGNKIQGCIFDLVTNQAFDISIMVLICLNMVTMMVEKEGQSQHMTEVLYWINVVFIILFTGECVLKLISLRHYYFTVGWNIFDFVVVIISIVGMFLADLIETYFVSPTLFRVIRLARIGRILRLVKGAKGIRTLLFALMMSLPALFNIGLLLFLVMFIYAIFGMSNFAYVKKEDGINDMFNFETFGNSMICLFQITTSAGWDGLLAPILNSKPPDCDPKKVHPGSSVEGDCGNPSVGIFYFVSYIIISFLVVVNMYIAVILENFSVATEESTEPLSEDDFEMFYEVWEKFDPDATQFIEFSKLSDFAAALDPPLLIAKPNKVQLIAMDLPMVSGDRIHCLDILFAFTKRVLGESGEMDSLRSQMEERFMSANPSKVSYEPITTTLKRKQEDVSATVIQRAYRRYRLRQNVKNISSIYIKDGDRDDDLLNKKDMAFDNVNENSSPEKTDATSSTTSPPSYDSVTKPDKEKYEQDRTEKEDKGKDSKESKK

For `Cn1cc(-c2cc(Cl)ccc2Oc2ccc(S(=O)(=O)Nc3nccs3)cc2C#N)cn1` [Example 693, 4-[4-chloro-2-(1-methyl-1H-pyrazol-4-yl)phenoxy]-3-cyano-N-1,3-thiazol-2-ylbenzenesulfonamide], the IC50 (commonly the concentration needed to halve the response being measured) is 81 nM.
For `N#Cc1cc(S(=O)(=O)Nc2nccs2)ccc1Oc1ccc(Cl)cc1-c1cnn[nH]1` [Example 694, 4-[4-chloro-2-(1H-1,2,3-triazol-5-yl)phenoxy]-3-cyano-N-1,3-thiazol-2-ylbenzenesulfonamide], the IC50 was 480 nM.
With `CCn1nc(C(F)(F)F)c(Cl)c1-c1ccc(Oc2ccc(S(=O)(=O)Nc3nccs3)cc2C#N)cc1` [Example 695, 4-{4-[4-chloro-1-ethyl-3-(trifluoromethyl)-1H-pyrazol-5-yl]phenoxy}-3-cyano-N-1,3-thiazol-2-ylbenzenesulfonamide], the half-maximal inhibitory concentration (IC50) was 340 nM.
Take `N#Cc1cc(S(=O)(=O)Nc2nccs2)ccc1Oc1ccc(I)cc1-c1cn[nH]c1` [Example 696, 3-cyano-4-[4-iodo-2-(1H-pyrazol-4-yl)phenoxy]-N-1,3-thiazol-2-ylbenzenesulfonamide]: the IC50 was 78 nM.
In the case of `N#Cc1cc(S(=O)(=O)Nc2nccs2)ccc1Oc1ccc(Br)cc1-c1cn[nH]c1` [Example 697, 4-[4-Bromo-2-(1H-pyrazol-4-yl)phenoxy]-3-cyano-N-1,3-thiazol-2-ylbenzenesulfonamide] it was 1.4 nM; in that of `Cc1ncsc1-c1cc(Cl)ccc1Oc1ccc(S(=O)(=O)Nc2nccs2)cc1C#N` [Example 698, 4-[4-chloro-2-(4-methyl-1,3-thiazol-5-yl)phenoxy]-3-cyano-N-1,3-thiazol-2-ylbenzenesulfonamide], 96 nM.
The figure for `Cn1nccc1-c1ccc(C(F)(F)F)cc1Oc1ccc(S(=O)(=O)Nc2nccs2)cc1C#N` [Example 699, 3-cyano-4-[2-(1-methyl-1H-pyrazol-5-yl)-5-(trifluoromethyl)phenoxy]-N-1,3-thiazol-2-ylbenzenesulfonamide] is 140 nM; for `N#Cc1cc(S(=O)(=O)Nc2nccs2)ccc1Oc1ccc(Cl)cc1-c1cccnc1` [Example 700, 4-(4-chloro-2-pyridin-3-ylphenoxy)-3-cyano-N-1,3-thiazol-2-ylbenzenesulfonamide] it is 57 nM; for `N#Cc1cc(S(=O)(=O)Nc2nccs2)ccc1Oc1ccc(Cl)cc1-c1cncnc1` [Example 701, 4-(4-chloro-2-pyrimidin-5-ylphenoxy)-3-cyano-N-1,3-thiazol-2-ylbenzenesulfonamide] it is 300 nM.
In the case of `COc1cc(-c2ccccc2Oc2ccc(S(=O)(=O)Nc3nccs3)cc2C#N)ccc1C#N` [Example 703] it was 190 nM.
Take `N#Cc1cc(S(=O)(=O)Nc2nccs2)ccc1Oc1ccc(OC(F)(F)F)cc1-c1cn[nH]c1` [Example 704, 3-cyano-4-[2-(1H-pyrazol-4-yl)-4-(trifluoromethoxy)phenoxy]-N-1,3-thiazol-2-ylbenzenesulfonamide]: the IC50 is 11 nM.
The figure for `Cn1nccc1-c1cc(Br)ccc1Oc1ccc(S(=O)(=O)Nc2nccs2)cc1C#N` [Example 705, 4-[4-bromo-2-(1-methyl-1H-pyrazol-5-yl)phenoxy]-3-cyano-N-1,3-thiazol-2-ylbenzenesulfonamide] is 15 nM.
In the case of `N#Cc1cc(S(=O)(=O)Nc2nccs2)ccc1Oc1ccc(Cl)cc1-c1c[nH]nc1N` [Example 706, 4-[2-(3-amino-1H-pyrazol-4-yl)-4-chlorophenoxy]-3-cyano-N-1,3-thiazol-2-ylbenzenesulfonamide] it was 26 nM.
The figure for `N#Cc1cc(S(=O)(=O)Nc2nccs2)ccc1Oc1ccccc1-c1cn[nH]c1N` [Example 707, 4-[2-(5-amino-1H-pyrazol-4-yl)phenoxy]-3-cyano-N-1,3-thiazol-2-ylbenzenesulfonamide] is 120 nM.
`N#Cc1cc(S(=O)(=O)Nc2nccs2)ccc1Oc1ccc(-n2nc(C(F)F)cc2CO)cc1` [Example 708, 3-cyano-4-{4-[3-(difluoromethyl)-5-(hydroxymethyl)-1H-pyrazol-1-yl]phenoxy}-N-1,3-thiazol-2-ylbenzenesulfonamide]: the IC50 was 400 nM.
In the case of `N#Cc1cc(S(=O)(=O)Nc2nccs2)ccc1Oc1ccc(Cl)cc1-c1ccn[nH]1` [Example 709, 4-[4-chloro-2-(1H-pyrazol-5-yl)phenoxy]-3-cyano-N-1,3-thiazol-2-ylbenzenesulfonamide], the IC50 is 14 nM.
The figure for `N#Cc1cc(S(=O)(=O)Nc2nccs2)ccc1Oc1ccc(Cl)cc1-c1[nH]ncc1F` [Example 710, 4-[4-chloro-2-(4-fluoro-1H-pyrazol-5-yl)phenoxy]-3-cyano-N-1,3-thiazol-2-ylbenzenesulfonamide] is 88 nM; for `N#Cc1cc(S(=O)(=O)Nc2nccs2)ccc1Oc1cc(Cl)ccc1-c1ccn[nH]1` [Example 711, 4-[5-chloro-2-(1H-pyrazol-5-yl)phenoxy]-3-cyano-N-1,3-thiazol-2-ylbenzenesulfonamide] it is 40 nM; for `Cc1nc(NS(=O)(=O)c2ccc(Oc3ccccc3-c3ccccc3)c(C#N)c2)sc1F` [Example 712, 4-(biphenyl-2-yloxy)-3-cyano-N-(5-fluoro-4-methyl-1,3-thiazol-2-yl)benzenesulfonamide] it is 1200 nM.
The figure for `N#Cc1cc(S(=O)(=O)Nc2ncc(F)s2)ccc1Oc1ccc(I)cc1-c1ccn[nH]1` [Example 713, 3-Cyano-N-(5-fluoro-1,3-thiazol-2-yl)-4-[4-iodo-2-(1H-pyrazol-5-yl)phenoxy]benzenesulfonamide] is 2.4 nM; for `N#Cc1cc(S(=O)(=O)Nc2ncc(F)s2)ccc1Oc1ccc(CCCO)cc1-c1cn[nH]c1` [Example 714, 3-cyano-N-(5-fluoro-1,3-thiazol-2-yl)-4-[4-(3-hydroxypropyl)-2-(1H-pyrazol-4-yl)phenoxy]benzenesulfonamide] it is 190 nM.
In the case of `Cn1nccc1-c1cc(CCCO)ccc1Oc1ccc(S(=O)(=O)Nc2ncc(F)s2)cc1C#N` [Example 715, 3-cyano-N-(5-fluoro-1,3-thiazol-2-yl)-4-[4-(3-hydroxypropyl)-2-(1-methyl-1H-pyrazol-5-yl)phenoxy]benzenesulfonamide] it was 210 nM; in that of `Cn1nccc1-c1cc(CCO)ccc1Oc1ccc(S(=O)(=O)Nc2ncc(F)s2)cc1C#N` [Example 716, 3-cyano-N-(5-fluoro-1,3-thiazol-2-yl)-4-[4-(2-hydroxyethyl)-2-(1-methyl-1H-pyrazol-5-yl)phenoxy]benzenesulfonamide], 430 nM.
Consider `Cn1ncnc1-c1cc(Cl)ccc1Oc1ccc(S(=O)(=O)Nc2ncc(F)s2)cc1C#N` [Example 717, 4-[4-chloro-2-(1-methyl-1H-1,2,4-triazol-5-yl)phenoxy]-3-cyano-N-(5-fluoro-1,3-thiazol-2-yl)benzenesulfonamide], for which the IC50 is above 300 nM.
Turning to `Cn1nccc1-c1cc(C(F)(F)F)ccc1Oc1ccc(S(=O)(=O)Nc2ncc(F)s2)cc1C#N` [Example 718, 3-cyano-N-(5-fluoro-1,3-thiazol-2-yl)-4-[2-(1-methyl-1H-pyrazol-5-yl)-4-(trifluoromethyl)phenoxy]benzenesulfonamide], the IC50 is 33 nM.
The figure for `Cn1nc(C(F)(F)F)cc1-c1ccc(Oc2ccc(S(=O)(=O)Nc3ncc(F)s3)cc2C#N)cc1F` [Example 719, 3-cyano-4-{3-fluoro-4-[1-methyl-3-(trifluoromethyl)-1H-pyrazol-5-yl]phenoxy}-N-(5-fluoro-1,3-thiazol-2-yl)benzenesulfonamide] is 160 nM.

Source of the values: US8541588B2, “Sulfonamide derivatives” (Pfizer Limited, priority 2009, dated 2013).
